Data as given in patent US12509438B2, “Pyrazole derivative” (Aptabio Therapeutics Inc., priority 2020, dated 2025).

Key:
[1] = tested on: N27 cells; assay: ROS production induced by MPP+ in N27 dopaminergic nerve cells (DCF-DA); assay type: cell-based, rat; conditions: compound 1 μM, 24 hours, FIG. 4
Source text: The high ROS level in nerve cells induces oxidized lipids, and this is known as an important element for nerve cell death. In order to confirm the effect of the synthetic example compound on ROS production from dopaminergic nerve cells, ROS production was induced by stimulation of MPP+(1-methyl-4-phenylptridinium) for N27 (rat dopaminergic neural cell, Sigma) cells, and the inhibitory effect of ROS production of the synthetic example compound was observed under this condition.
N27 cells were cultured in a RPMI medium comprising 10% FBS, […], and the cultured cells were aliquoted in a 6 well plate at a concentration of 5×10^3˜6×10^3 cells/well. The ROS production stimuli, MPP+ (1-methyl-4-phenylptridinium) and Synthetic example compound 3 (1 μM) were treated into the cells. In 24 hours after treating the synthetic example compound, by measuring fluorescence of each well using DCF-DA, the ROS production level was confirmed.

[2] = tested on: CTGF gene; assay: CTGF gene expression induced by TGF-β1 in KEL-FIB keloid fibroblasts (qRT-PCR); assay type: cell-based; conditions: KEL-FIB cells; 5 μM or 10 μM compound; 2 ng/ml TGF-β1; 24 or 48 hours
Description: (§1) In order to confirm the effect on the process of producing extracellular matrix from keloid fibroblasts of the synthetic example compound, the expression change of an extracellular matrix formation promoting factor, CTGF and a representative extracellular matrix, collagen type I according to treatment of the Synthetic example 3 compound for KEL-FIB (keloid fibroblast) cells was analyzed at a gene level.
(§2) The KEL-FIB cell line was adapted in a DMEM comprising 2% FBS for 24 hours and then the Synthetic example 3 compound at a concentration of ? 5 μM or 10 μM was pretreated for 1 hour. For inducing expression of CTGF and collagen type I genes, 2 ng/ml TGF-β1 was treated and mRNA was extracted from the cells after 24 or 48 hours. The presence of mRNA and expression level of CTGF and collagen type 1 genes were confirmed by qRT-PCR (Quantitative real-time PCR).

[3] = tested on: αSMA; assay: Expression of αSMA induced by TGF-β1 in NHLF cells (immunocytochemistry); assay type: cell-based, human; conditions: compound 5 μM, TGF-β1 10 ng/ml, FIG. 3a/3b
Source text: (§3) In order to confirm whether the synthetic example compound of the present invention affects differentiation of fibroblasts into myofibroblasts, the inhibitory effect of the synthetic example compound for increasing expression of αSMA (a biomarker for confirming differentiation into myofibroblasts) induced by TGF-β1 for HL-60 cells (Korean Cell Line Bank), HFF-1 (human foreskin fibroblast, ATCC), NHLF (normal human lung fibroblast, Lonza), LX-2 (human hepatic stellate cells, Sigma), ARPE19 (human retinal pigment epithelial cell, ATCC), KEL-FIB (Keloid fibroblast, ATCC) cells was to be observed.
(§4) Each cell was suspended in a DMEM medium comprising 10% FBS and aliquoted on a 4-well chamber slide (Nunc) at a concentration of 1×10^4 cells/well, and the synthetic example compound and TGF-β1(TGF 131, TGF-β are all same meanings) were treated to prepare cells to be used for confirmation of αSMA expression. […] After performing fixation with 4% paraformaldehyde for 10 minutes and permeabilization using 0.1% Triton x-100 for the cells, the process of treating a primary antibody (anti-αSMA Ab, 1:200, at 4° C. for 16 hours) and a secondary antibody (Alexa-594 conjugated Ab, 1:800, at a room temperature for 1 hour) against αSMA was progressed sequentially, and then the level of expression of αSMA was observed by using a fluorescence microscope.

[4] = tested on: IL-1β; assay: Expression of IL-1β induced by LPS in NHLF cells (RT-PCR); assay type: cell-based, human; conditions: 30 min pretreatment, LPS 6 hours, FIG. 5
Description: (§5) After inoculating a 2×10^5 number of cells in a 6 well plate and culturing for 24 hours and then further culturing in a culture solution without serum for 16 hours, the Synthetic example 3 compound was pretreated according to each condition for 30 minutes and inflammation reaction was induced by LPS for 6 hours. The expression of IL-1β was confirmed by using RT-PCR. The total RNA was separated from the cells by using RNeasy mini kit (Qiagen) and from the separated RNA 2 ug, cDNA was synthesized by using PrimeScript™ II 1st strand cDNA synthesis kit (TaKaRa) and then PCR was performed by AccuPower® PCR PreMix (Bioneer) to amplify genes. The sequence for target primers is as follows. IL-1β (forward: 5′-[…]-3′, reverse: 5′-[…]-3′); GAPDH (forward: 5′-[…]-3′, reverse: 5′-[…]-3′); β-actin (forward: 5′-[…]-3′, reverse: 5′-[…]-3′). The PCR product was confirmed by electrophoresis in 1.5% agarose gel.

[5] = tested on: NHLF cells; assay: ROS production in NHLF cells (L-012 or DCF-DA); assay type: cell-based, human; conditions: FIG. 1
Source text: (§6) In order to confirm an effect of the synthetic example compounds on ROS production from fibroblasts and specific substrate cells, ROS production was induced by stimulation of PMA (phorbol 12-myristate 13-acetate), TGF-β1, palmitate or high concentration-glucose, or the like for HL-60 cells (Korean Cell Line Bank), NHLF(normal human lung fibroblast, Lonza), LX-2 (human hepatic stellate cells, Sigma), ARPE19 (human retinal pigment epithelial cell, ATCC), KEL-FIB (Keloid fibroblast, ATCC) cells differentiated into neutrophil cells by treatment of DMSO, and the inhibitory effect of ROS production of the synthetic example compounds was observed under this condition.
(§7) NHLF (normal human lung fibroblast, Lonza), LX-2 (human hepatic stellate cells, Sigma), ARPE19 (human retinal pigment epithelial cell, ATCC), KEL-FIB (keloid fibroblast, ATCC) cells were suspended in a culture medium comprising 10% FBS and aliquoted in a 96 well plate, and then cultured under the condition of 5% CO2, 37° C. for 24 hours. The synthetic example compound was pretreated from 30 minutes to 1 hour, and then a ROS stimulus was treated to each well comprising cells and a drug. After additional culturing for 48 hours, the level of ROS production was confirmed by using L-012 or DCF-DA.

[6] = tested on: αSMA; assay: Expression of αSMA induced by TGF-β1 in KEL-FIB cells (immunocytochemistry); assay type: cell-based; conditions: compound 5 μM, TGF-β1 10 ng/ml, FIG. 3a/3b
Source text: as §3, §4

[7] = tested on: αSMA; assay: Expression of αSMA induced by TGF-β1 in HFF-1 cells (immunocytochemistry); assay type: cell-based, human; conditions: compound 5 μM, TGF-β1 10 ng/ml, FIG. 3a/3b
Source text: as §3, §4

[8] = tested on: αSMA; assay: Expression of αSMA induced by TGF-β1 in LX-2 cells (immunocytochemistry); assay type: cell-based, human; conditions: compound 5 μM, TGF-β1 10 ng/ml, FIG. 3a/3b
Source text: as §3, §4

[9] = tested on: collagen type I gene; assay: Collagen type I gene expression induced by TGF-β1 in KEL-FIB keloid fibroblasts (qRT-PCR); assay type: cell-based; conditions: KEL-FIB cells; 5 μM or 10 μM compound; 2 ng/ml TGF-β1; 24 or 48 hours
Description: as §1, §2

[10] = tested on: IL-1β; assay: Expression of IL-1β induced by LPS in LX-2 cells (RT-PCR); assay type: cell-based, human; conditions: 30 min pretreatment, LPS 6 hours, FIG. 5
Description: as §5

[11] = tested on: LX-2 cells; assay: ROS production in LX-2 cells (L-012 or DCF-DA); assay type: cell-based, human; conditions: FIG. 1
Source text: as §6, §7

[12] = tested on: αSMA; assay: Expression of αSMA induced by TGF-β1 in ARPE19 cells (immunocytochemistry); assay type: cell-based, human; conditions: compound 5 μM, TGF-β1 10 ng/ml, FIG. 3a/3b
Source text: as §3
as §4, with “microscope. […]” for “microscope.”

Oc1c2c(nn1-c1ccccn1)CN(Cc1ccccc1)CC2 [Synthetic example 3, 6-benzyl-2-(pyridin-2-yl)-4,5,6,7-tetrahydro-2H-pyrazolo[3,4-c]pyridin-3-ol]
inhibition of ROS production induced by MPP+ [1]: inhibiting production of ROS
inhibition of expression of the CTGF gene [2]: 76%
inhibition of increase of expression of αSMA induced by TGF-β1 [3]: significantly inhibited
inhibition of IL-1β induced by LPS [4]: effectively inhibited in a concentration-dependent manner
inhibition of ROS production induced by PMA [5]: inhibited ROS production
inhibition of increase of expression of αSMA induced by TGF-β1 [6]: significantly inhibited
inhibition of increase of expression of αSMA induced by TGF-β1 [7]: significantly inhibited
inhibition of increase of expression of αSMA induced by TGF-β1 [8]: significantly inhibited
inhibition of expression of the collagen type I gene [9]: 75%
inhibition of IL-1β induced by LPS [10]: effectively inhibited in a concentration-dependent manner
inhibition of ROS production induced by PMA [11]: inhibited ROS production
inhibition of increase of expression of αSMA induced by TGF-β1 [12]: significantly inhibited
